Data as given in patent US7253165B2, “Benzisoxazolyl-, pyridoisoxazolyl-and benzthienyl-phenoxy derivatives useful as D4 antagonists” (Aventis Pharmaceuticals Inc., priority 1999, dated 2007).

Key:
[1] = target: T1, human D4 receptor (D4.2 sub-type) (Homo sapiens, UniProt P21917, DEL265-296); assay: D4 receptor binding assay, displacement of 3H-spiperone; settings: 3H-spiperone 0.25 nM; for Ki: membranes of HEK cells transfected with human D4.2, * = HCl salt, read-out: D4 RBA Ki; for D4 RBA % Inhibition (@ 1 μM): 1 μM test compound
T1 sequence (P21917 with tags, fused parts or gaps DEL265-296): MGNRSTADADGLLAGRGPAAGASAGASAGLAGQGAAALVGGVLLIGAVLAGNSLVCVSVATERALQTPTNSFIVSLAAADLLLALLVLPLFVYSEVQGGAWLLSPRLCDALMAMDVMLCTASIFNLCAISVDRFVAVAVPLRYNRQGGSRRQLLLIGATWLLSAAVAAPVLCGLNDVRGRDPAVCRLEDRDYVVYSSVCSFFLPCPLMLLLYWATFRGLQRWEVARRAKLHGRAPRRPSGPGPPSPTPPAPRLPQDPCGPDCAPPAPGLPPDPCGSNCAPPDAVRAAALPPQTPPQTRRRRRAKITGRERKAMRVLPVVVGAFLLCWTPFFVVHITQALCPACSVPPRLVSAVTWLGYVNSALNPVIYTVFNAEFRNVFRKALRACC
Method: D4 receptor-binding affinities of the compounds were evaluated according to their ability to reduce binding of ^3H-spiperone as compared to the reference compound clozapine. The potency of the test compound to reduce ^3H-spiperone binding directly correlated to its binding affinity for the receptor.
[…] (human embryonic kidney) cells stably transfected with human D4 receptor (D4.2 sub-type) were grown in NUNC cell factories for 5 days (75% confluency) without a media change and removed with versene (approximately 19 mg of cells per cell factory tray). The cells were then centrifuged in a Sorval centrifuge for 10 min, 5000 rpm (GS3 rotor) and the pellets quickly frozen in liquid nitrogen and stored at −80° C. until used in binding assay. When used in the assay, cells were thawed on ice for 20 min and then 10 mL of incubation buffer (50 mM Tris, 1 mM EDTA, 4 mM MgCl2, 5 mM KCl, 1.5 mM CaCl2, 120 mM NaCl, pH 7.4) was added. The cells were then vortexed to resuspend pellet and homogenized with a Kinematica, CH-6010 Kriens-LU, homogenizer for 15 seconds at setting 7. Concentration of receptor protein was determined using the Pierce BCA assay.
The incubation was started by the addition of 100 μl (50 μg protein) membrane homogenate to a solution of 300 μl incubation buffer and 100 μl (0.25 nM final conc.) ^3H-spiperone (90 Ci/mmol, Amersham, diluted in borosilicate glass vial) in 96-well polypropylene plates (1 ML per well). The plates were vortexed and incubated at room temperature for 90 minutes. The binding reaction was stopped by filtering using a Packard Harvester. The samples were filtered under vacuum over glass fibre filter plates (Whatman GF/B) presoaked for 2 hours in 0.3% polyethylenimine (PEI) in 50 mM Tris buffer (pH 7.4). The filters were then washed 6 times with 7 mL ice cold 50 mM Tris buffer (pH 7.4). The filter plates were dried overnight and 35 μl of Microscint-O (Packard) was added. The plates were sealed and counted in the Packard Top Count (3 minutes per well).
The incubation was started by the addition of 100 μl (50 μg protein) membrane homogenate to a solution of 200 μl incubation buffer, 100 μl ^3H-spiperone (90 Ci/mmol, Amersham, diluted in borosilicate glass vial to 0.25 nM final conc.) and 100 μl (30 μM final conc.) of fresh dopamine (Research Biochemicals Inc., light protected and dissolved in incubation buffer) in 96-well polypropylene plates (1 mL per well). The plates were vortexed and incubated at room temperature for 90 minutes at which time the binding reaction was stopped by filtering. The filters were washed and counted using the same procedure as in the total binding assay described above to give the non-specific binding value (NSB).
The incubation was started by the addition, in 96-well polypropylene plates (1 mL per well), of 100 μl (50 μg protein) membrane homogenate to a solution of 200 μl incubation buffer, 100 μl (0.25 nM final-conc.) ^3H-spiperone (90 Ci/mmol, Amersham, diluted in borosilicate glass vial) and 100 μl of test compound that was prepared from 1 mM stock dissolved in DMSO and stored at −20° C. in polypropylene cryogenic storage vials until dilution in incubation buffer in 96-well polypropylene plates. The plates were vortexed and incubated at room temperature for 90 minutes at which time the binding reaction was stopped by filtering. The filters were washed and counted using the same procedure as in the total binding assay described above to give the displacement binding value (BD).
The test compounds were initially assayed at 1 and 0.1 μM and then at a range of concentrations chosen such that the middle dose would cause about 50% inhibition of ^3H-spiperone binding. Specific binding in the absence of test compound (B0) was the difference of total binding (BT) minus non-specific binding (NSB) and similarly specific binding (in the presence of test compound) (B) was the difference of displacement binding (BD) minus non-specific binding (NSB). […]

[2] = tested on: MK-801 induced stereotypy (locomotion and falling behavior) in CD-1 or C57 male mice; assay: MK-801 Stereotypy in Mice; settings: In Vivo Method PO, MK-801 0.2 mg/kg; for inhibition in vivo at 20 mg/kg: Mus musculus, read-out: Antag. of MK 801 Stereotypy % Inhib. @ 20 mg/kg
Method: Mk-801 dose-dependently induces characteristic stereotypy marked by locomotion and falling behavior. This MK-801 induced behavior can be antagonized by novel neuroleptic agents. This assay can also assess time course effects following drug administration.
CD-1 or C57 male mice are individually placed in activity boxes (8 mice/drug) and allowed to acclimate for 60 minutes. The mice are then administered test compounds either i.p., s.c., or p.o., at 15, 30, or 60 minutes prior to MK-801 (0.2 mg/kg) administration. Mice are observed for the presence of locomotion and falling behaviors 15 minutes following MK-801. For the duration of action studies the test compounds are administered i.p., s.c., or p.o., at 30, 60, 120, 180, and 240 minutes prior to MK-801 administration.

| Ki [1] | Compound | other results |
| --- | --- | --- |
| 42 nM | CN(CCc1ccccc1)C[C@@H](O)COc1ccc(-c2noc3cc(F)ccc23)cc1 [Example 6] | – |
| 9 nM | O[C@@H](COc1ccc(-c2noc3cc(F)ccc23)cc1)CN1CCN(c2ccccn2)CC1 [Example 8] | inhibition in vivo at 20 mg/kg [2]: 37.5% |
| 34 nM | CCCC1CCN(CCOc2ccc(-c3noc4cc(F)ccc34)cc2)CC1 [Example 146] | – |
| 3.8 nM | CC1CCN(CCCOc2ccc(-c3noc4cc(F)ccc34)cc2)CC1 [Example 153] | inhibition in vivo at 20 mg/kg [2]: 75% |
| 11.2 nM | CCCC1CCN(CCCOc2ccc(-c3noc4cc(F)ccc34)cc2)CC1 [Example 154] | inhibition in vivo at 20 mg/kg [2]: 25% |
| 8.42 nM | Fc1ccc2c(-c3ccc(OCCCNCC4CCCCC4)cc3)noc2c1 [Example 158] | inhibition in vivo at 20 mg/kg [2]: 37.5% |

More lines, now with the values behind:

| Compound | Ki [1] | other results |
| --- | --- | --- |
| CN(CCc1ccccc1)C[C@@H](O)COc1ccc(-c2noc3cc(F)ccc23)cc1 [Example 27, (R)-1-[4-(6-fluoro-benzo[d]isoxazol-3-yl)-phenoxy]-3-(methyl-phenethyl-amino)-propan-2-ol] | – | D4 RBA % Inhibition (@ 1 μM) [1]: 66% |
| O[C@@H](COc1ccc(-c2noc3cc(F)ccc23)cc1)CN1CCN(c2ccccn2)CC1 [Example 29, (R)-1-[4-(6-fluoro-benzo[d]isoxazol-3-yl)-phenoxy]-3-(4-pyridin-2-yl-piperazin-1-yl)-propan-2-ol] | – | D4 RBA % Inhibition (@ 1 μM) [1]: 41% |
| O[C@@H](COc1ccc(-c2noc3cc(F)ccc23)cc1)CN1CCC(c2noc3cc(F)ccc23)CC1 [Example 34, (R)-1-[4-(6-fluoro-benzo[d]isoxazol-3-yl)-phenoxy]-3-[4-(6-fluoro-benzo[d]isoxazol-3-yl)-piperidin-1-yl]-propan-2-ol] | – | D4 RBA % Inhibition (@ 1 μM) [1]: 46% |
| O[C@@H](COc1ccc(-c2noc3cc(F)ccc23)cc1)CN1CCC(O)(c2ccccc2)CC1 [Example 38, (R)-1-{3-[4-(6-fluoro-benzo[d]isoxazol-3-yl)-phenoxy]-2-hydroxy-propyl}-4-phenyl-piperidin-4-ol] | – | D4 RBA % Inhibition (@ 1 μM) [1]: 54% |
| O[C@@H](COc1cccc(-c2noc3cc(F)ccc23)c1)CN1CCN(c2ncccn2)CC1 [Example 69, (R)-1-[3-(6-fluoro-benzo[d]isoxazol-3-yl)-phenoxy]-3-(4-pyrimidin-2-yl-piperazin-1-yl)-propan-2-ol] | 14 nM | – |
| O[C@H](CNC1CCc2ccccc21)COc1ccc(-c2noc3cc(F)ccc23)cc1 (stereo partly drawn) [Example 72, (R)-1-[4-(6-fluoro-benzo[d]isoxazol-3-yl)-phenoxy]-3-(indan-1-ylamino)-propan-2-ol] | 30 nM | – |
| O[C@H](CNCc1cccs1)COc1ccc(-c2noc3cc(F)ccc23)cc1 [Example 73, (R)-1-[4-(6-fluoro-benzo[d]isoxazol-3-yl)-phenoxy]-3-[(thiophen-2-ylmethyl)-amino]-propan-2-ol] | 13 nM | – |
| COc1cccc(CNC[C@@H](O)COc2ccc(-c3noc4cc(F)ccc34)cc2)c1 [Example 80, (R)-1-[4-(6-fluoro-benzo[d]isoxazol-3-yl)-phenoxy]-3-(3-methoxy-benzylamino)-propan-2-ol] | – | D4 RBA % Inhibition (@ 1 μM) [1]: 76% |
| O[C@H](CNC1Cc2ccccc2C1)COc1ccc(-c2noc3cc(F)ccc23)cc1 [Example 89, (R)-1-[4-(6-fluoro-benzo[d]isoxazol-3-yl)-phenoxy]-3-(indan-2-ylamino)-propan-2-ol] | 1.3 nM | Antag. of MK 801 Stereotypy % Inhib. @ 20 mg/kg [2]: 25% |
| O[C@@H](COc1ccc(-c2noc3cc(F)ccc23)cc1)CN1CCC(Oc2cccc(Cl)c2)CC1 [Example 90, (R)-1-[4-(3-chloro-phenoxy)-piperidin-1-yl]-3-[4-(6-fluoro-benzo[d]isoxazol-3-yl)-phenoxy]-propan-2-ol] | 27 nM | – |
| O[C@H](CNCc1ccc(F)cc1)COc1ccc(-c2csc3ccccc23)cc1 [Example 96, (R)-1-(4-benzo[b]thiophen-3-yl-phenoxy)-3-(4-fluoro-benzylamino)-propan-2-ol] | 26 nM | – |
| O[C@@H](COc1cccc(-c2noc3ncccc23)c1)CN1CCC(Oc2cccc(Cl)c2)CC1 [Example 102, (R)-1-[4-(3-chloro-phenoxy)-piperidin-1-yl]-3-(3-isoxazolo[5,4-b]pyridin-3-yl-phenoxy)-propan-2-ol] | – | D4 RBA % Inhibition (@ 1 μM) [1]: 59% |
| O[C@@H](COc1cccc(-c2noc3ncccc23)c1)CN1CCN(c2ncccn2)CC1 [Example 106, (R)-1-(3-isoxazolo[5,4-b]pyridin-3-yl-phenoxy)-3-(4-pyrimidin-2-yl-piperazin-1-yl)-propan-2-ol] | 8.4 nM | – |
| Fc1ccc2c(-c3ccc(OCCN4CCC5(CC4)OCCO5)cc3)noc2c1 [Example 152] | 7.1 nM | – |
| Fc1ccc2c(-c3ccc(OCCCN4CCCCCC4)cc3)noc2c1 [Example 156] | 3.88 nM | inhibition in vivo at 20 mg/kg [2]: 50% |
| Fc1ccc2c(-c3ccc(OCCCN4CCCCCCC4)cc3)noc2c1 [Example 157] | 8.35 nM | inhibition in vivo at 20 mg/kg [2]: 50% |
